Each compound was assayed on gamma secretase cleavage of NotchδE (constitutively active rat Notch1 construct ZEDN1) (assay: Notch signaling reporter gene assay (4xwtCBF1 Luciferase co-transfected with NotchδE) for selective inhibitors of gamma secretase). Details: assay not given, it follows the Notch signaling assay section.
Assay type: cell-based
From the text: Due to the importance of Notch signaling in cell fate determination, and tissue differentiation during both development and in the adult, inhibition of Notch signaling by gamma secretase inhibitors is postulated to be a limiting factor in their therapeutic utility. […] Lindsell, O. Bogler, D. Hayward and G. Weinmaster (1996). “Notch signaling inhibits muscle cell differentiation through a CBF1-independent pathway.” Development 122(12): 3765-73 in combination with the CBF1 repressible Luciferase reporter gene 4xwtCBF1Luc (Hsieh, J. J., T. Henkel, P. Salmon, E. Robey, M. G. Peterson and S. D. Hayward (1996). “Truncated mammalian Notch1 activates CBF1/RBPJk-repressed genes by a mechanism resembling that of Epstein-Barr virus EBNA2. ” Mol Cell Biol 16(3): 952-9).
When 4xwtCBF1 Luciferase is co-transfected with NotchδE (ZEDN1), gamma-secretase cleavage of NotchδE releases the Notch intracellular domain (NICD), which translocates to the nucleus and de-represses CBF1 mediated transcriptional repression, leading to transcription of the Luciferase reporter gene. Luciferase activity is easily assayed in cell extracts using commercially available kits. The activity of the reporter gene is directly correlated with gamma secretase cleavage of NotchδE, and as such, a reduction in Luciferase activity provides a convenient measure of inhibition of gamma secretase cleavage of NotchδE.

| Structure (SMILES) | IC50 |
| --- | --- |
| CC1CCCCN1S(=O)(=O)c1ccc(Cl)cc1 (stereo not shown) [Compound 48, 1-(4-Chloro-benzenesulfonyl)-2-methyl-piperidine] | 1000 to 10000 nM |
| O=S(=O)(c1ccc(Cl)cc1)N1CCCCCC1 [Compound 43, 1-(4-Chloro-benzenesulfonyl)-azepane] | 1000 to 10000 nM |
| CCCCNC(=O)[C@H]1CSC(c2ccc(OC)c(OC)c2)N1S(=O)(=O)c1ccc(Cl)cc1 (stereo partly drawn) [Compound 139, (4S)-N-butyl-3-[(4-chlorophenyl)sulfonyl]-2-(3,4-dimethoxyphenyl)-1,3-thiazolidine-4-carboxamide] | > 10000 nM |
| CC1C=CC(C)N1S(=O)(=O)c1ccc(Cl)cc1 (stereo not shown) [Compound 149, 1-(4-Chloro-benzenesulfonyl)-2,5-dimethyl-2,5-dihydro-1H-pyrrole] | 1000 to 10000 nM |
| O=S(=O)(c1ccc(Cl)cc1)N1CCCN2CCCN=C21 [Compound 138, 1-(4-Chloro-benzenesulfonyl)-1,3,4,6,7,8-hexahydro-2H-pyrimido[1,2-a]pyrimidine] | > 10000 nM |
| CC1CCCN(S(=O)(=O)c2ccc(Cl)cc2)C1 (stereo not shown) [Compound 54, 1-(4-Chloro-benzenesulfonyl)-3-methyl-piperidine] | 1000 to 10000 nM |
| CC1(c2ccccc2)CCCN(S(=O)(=O)c2ccc(Cl)cc2)C1 (stereo not shown) [Compound 74, 1-(4-Chloro-benzenesulfonyl)-3-methyl-3-phenyl-piperidine] | > 10000 nM |
| CC1CCCC(C)N1S(=O)(=O)c1ccc(Cl)cc1 (stereo not shown) [Compound 47, 1-(4-Chloro-benzenesulfonyl)-2,6-dimethyl-piperidine] | 100 to 1000 nM |
| O=S(=O)(c1ccc(Cl)cc1)N1CCCCC1c1cccnc1 (stereo not shown) [Compound 1, 1-(4-Chloro-benzenesulfonyl)-1,2,3,4,5,6-hexahydro-[2,3′]bipyridinyl] | 1000 to 10000 nM |
| CC1CCc2cc(F)ccc2N1S(=O)(=O)c1ccc(Cl)cc1 (stereo not shown) [Compound 13, 1-(4-Chloro-benzenesulfonyl)-6-fluoro-2-methyl-1,2,3,4-tetrahydro-quinoline] | 1000 to 10000 nM |
| CC1CCC(C)N1S(=O)(=O)c1ccc(Cl)cc1 (stereo not shown) [Compound 124, 1-(4-Chloro-benzenesulfonyl)-2,5-dimethyl-pyrrolidine] | 1000 to 10000 nM |
| O=C(Nc1ccccc1)C1Cc2ccccc2N1S(=O)(=O)c1ccc(Cl)cc1 (stereo not shown) [Compound 2, 1-(4-Chloro-benzenesulfonyl)-2,3-dihydro-1H-indole-2-carboxylic acid phenylamide] | 1000 to 10000 nM |
| C[C@@H]1CCC[C@H](C)N1S(=O)(=O)c1ccc(Cl)cc1 [Compound 45, (2R,6S)-1-[(4-chlorophenyl)sulfonyl]-2,6-dimethylpiperidine] | 100 to 1000 nM |
| CC1CC(C)CN(S(=O)(=O)c2ccc(Cl)cc2)C1 (stereo not shown) [Compound 51, 1-(4-Chloro-benzenesulfonyl)-3,5-dimethyl-piperidine] | 1000 to 10000 nM |
| O=S(=O)(c1ccc(Cl)cc1)N1CCC(Br)CC1 [Compound 56, 4-Bromo-1-(4-chloro-benzenesulfonyl)-piperidine] | > 10000 nM |
| CCC1CCCCN1S(=O)(=O)c1ccc(Cl)cc1 (stereo not shown) [Compound 46, 1-(4-Chloro-benzenesulfonyl)-2-ethyl-piperidine] | 100 to 1000 nM |
| O=S(=O)(c1ccc(Cl)cc1)N1CCCC2CCCCC21 (stereo not shown) [Compound 9, 1-(4-Chloro-benzenesulfonyl)-decahydro-quinoline] | 1000 to 10000 nM |
| O=C(NCc1ccccc1)C1Cc2ccccc2N1S(=O)(=O)c1ccc(Cl)cc1 (stereo not shown) [Compound 12, 1-(4-Chloro-benzenesulfonyl)-2,3-dihydro-1H-indole-2-carboxylic acid benzylamide] | 1000 to 10000 nM |
| CCOC(=O)C1CCCN(S(=O)(=O)c2ccc(Cl)cc2)C1 (stereo not shown) [Compound 65, 1-(4-Chloro-benzenesulfonyl)-piperidine-3-carboxylic acid ethyl ester] | > 10000 nM |
